These results are taken from patent publication US20210277015A1, “OGA INHIBITOR COMPOUNDS” (Janssen Pharmaceutica NV, priority 2018, published 2021).

Experiment [1] concerns the target T1, OGA (Homo sapiens, UniProt O60502).
T1 construct: endogenous in cells; host or cells: HEK293 cells inducible for P301L mutant human Tau (isoform 2N4R)
T1 sequence (O60502 1-916): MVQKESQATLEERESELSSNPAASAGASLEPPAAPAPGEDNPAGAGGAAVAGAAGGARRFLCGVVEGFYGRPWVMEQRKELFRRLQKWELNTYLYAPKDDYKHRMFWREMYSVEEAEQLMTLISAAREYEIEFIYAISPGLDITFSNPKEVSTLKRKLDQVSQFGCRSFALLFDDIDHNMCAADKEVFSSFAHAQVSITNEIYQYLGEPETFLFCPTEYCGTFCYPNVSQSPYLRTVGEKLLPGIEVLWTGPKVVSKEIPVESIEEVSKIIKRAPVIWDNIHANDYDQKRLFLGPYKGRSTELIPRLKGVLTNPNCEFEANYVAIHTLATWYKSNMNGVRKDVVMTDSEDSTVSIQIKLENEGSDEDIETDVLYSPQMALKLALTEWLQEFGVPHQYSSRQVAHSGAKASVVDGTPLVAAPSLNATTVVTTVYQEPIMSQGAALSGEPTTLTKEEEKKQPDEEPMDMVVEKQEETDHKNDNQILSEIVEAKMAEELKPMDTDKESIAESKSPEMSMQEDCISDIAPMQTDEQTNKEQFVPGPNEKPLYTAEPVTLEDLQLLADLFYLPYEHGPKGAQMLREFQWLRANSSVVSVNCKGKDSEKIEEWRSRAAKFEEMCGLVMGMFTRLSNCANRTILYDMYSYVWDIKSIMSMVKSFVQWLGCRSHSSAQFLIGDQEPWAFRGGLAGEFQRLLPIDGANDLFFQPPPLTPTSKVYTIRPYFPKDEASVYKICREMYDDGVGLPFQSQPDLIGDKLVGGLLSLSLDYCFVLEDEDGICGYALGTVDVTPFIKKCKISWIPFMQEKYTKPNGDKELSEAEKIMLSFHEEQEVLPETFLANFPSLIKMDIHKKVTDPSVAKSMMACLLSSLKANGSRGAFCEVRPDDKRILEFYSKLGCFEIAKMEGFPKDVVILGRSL
Briefly: OGA cellular assay (ICC detection of O-GlcNAcylated proteins in HEK293 cells inducible for P301L mutant human Tau). The class given is cell-based. The following applies: for EC50 / Cellular Emax (%) / Cellular hOGA; pEC50: HEK293 cells inducible for P301L mutant human Tau; for EC50 / Cellular hOGA; pEC50: 6 hours incubation, ICC O-GlcNAcylation; for EC50: read-out: Cellular hOGA, pEC50 (converted); for Cellular Emax (%) / Emax: maximum defined by Thiamet G at 200 uM; for Emax: HEK293, HEK293 cells inducible for P301L mutant human Tau. Here is the method: HEK293 cells inducible for P301L mutant human Tau (isoform 2N4R) were established at Janssen. Thiamet-G was used for both plate validation (high control) and as reference compound (reference EC50 assay validation). OGA inhibition is evaluated through the immunocytochemical (ICC) detection of O-GlcNAcylated proteins by the use of a monoclonal antibody (CTD110.6; Cell Signaling, #9875) detecting O-GlcNAcylated residues as previously described (Dorfmueller et al. 2010 Chemistry & biology, 17:1250). Inhibition of OGA will result in an increase of O-GlcNAcylated protein levels resulting in an increased signal in the experiment. Cell nuclei are stained with Hoechst to give a cell culture quality control and a rough estimate of immediate compounds toxicity, if any. ICC pictures are imaged with a Perkin Elmer Opera Phenix plate microscope and quantified with the provided software Perkin Elmer Harmony 4.1.
Cells were propagated in DMEM high Glucose (Sigma, #D5796) following standard procedures. 2 days before the cell assay cells are split, counted and seeded in Poly-D-Lysine (PDL) coated 96-wells (Greiner, #655946) plate at a cell density of 12,000 cells per cm^2 (4,000 cells per well) in 100 μl of Assay Medium (Low Glucose medium is used to reduce basal levels of GlcNAcylation) (Park et al. 2014 The Journal of biological chemistry 289:13519). At the day of compound test medium from assay plates was removed and replenished with 90 μl of fresh Assay Medium. 10 μl of compounds at a 10 fold final concentration were added to the wells. Plates were centrifuged shortly before incubation in the cell incubator for 6 hours. DMSO concentration was set to 0.2%. Medium is discarded by applying vacuum. For staining of cells medium was removed and cells washed once with 100 μl D-PBS (Sigma, #D8537). From next step onwards unless other stated assay volume was always 50 μl and incubation was performed without agitation and at room temperature. Cells were fixed in 50 μl of a 4% paraformaldehyde (PFA, Alpha aesar, #043368) PBS solution for 15 minutes at room temperature. […] Before analysis samples were washed 2 times manually for 5 minutes in ICC base buffer.
Imaging is performed using Perkin Elmer Phenix Opera using a water 20× objective and recording 9 fields per well. Intensity readout at 488 nm is used as a measure of O-GlcNAcylation level of total proteins in wells. To assess potential toxicity of compounds nuclei were counted using the Hoechst staining. IC50-values are calculated using parametric non-linear regression model fitting. As a maximum inhibition Thiamet G at a 200 uM concentration is present on each plate. In addition, a concentration response of Thiamet G is calculated on each plate.

For experiment [2], the target named is T2, recombinant human Meningioma Expressed Antigen 5 (MGEA5), also referred to as O-GlcNAcase (OGA) (Homo sapiens, UniProt O60502).
T2 construct: Full length OGA enzyme was purchased at OriGene (cat #TP322411); purchased OriGene TP322411
T2 sequence (O60502 1-916): T1 sequence (O60502 1-916)
Briefly: OGA biochemical assay (inhibition of FM-GlcNAc hydrolysis, fluorescence). Particulars: FM-GlcNAc substrate; for IC50: 6 h at room temperature, read-out: Enzymatic hOGA, pIC50 (converted); for Enzymatic Emax (%) / Emax: maximal effect; for Emax: read-out: Enzymatic Emax (%). The gist of the method: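 Full-length human OGA (2 nM) pre-incubated 60 min at room temperature with compound, then FM-GlcNAc (100 µM final) added in citrate/phosphate buffer pH 7.2 with 0.005% Tween-20; 6 h at room temperature, stopped with carbonate pH 11.0. Fluorescein read at 485/538 nm; IC50 and Hill coefficient from curve fit.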

`Cc1cc(O[C@H]2CCN(C(C)c3ccc4c(n3)OCCO4)C2)cc(C)n1` (single isomer, unassigned) [Product 71]: in experiment [1], the EC50 is over 1000 nM and the “Cellular Emax (%)” value was found to be 9%. In experiment [2], the IC50 was 794 nM and the “Enzymatic Emax (%)” value came out at 99%.

As for `Cc1cc(O[C@H]2CCN(C(C)c3ccc4c(n3)OCCO4)C2)cc(C)n1` (single isomer, unassigned) [Product 72], in experiment [1], the “Cellular hOGA; pEC50” value is on record as under 6 and the “Cellular Emax (%)” value is recorded as −8%. Further, in experiment [2], the IC50 is over 10000 nM and the “Enzymatic Emax (%)” value is given as 21%.

Consider `Cc1cc(O[C@@H]2CCN(C(C)c3ccc4c(n3)OCCO4)C2)cc(C)n1` (single isomer, unassigned) [Product 74], for which, in experiment [1], the EC50 is over 1000 nM and the “Cellular Emax (%)” value is listed as −9%. Also, in experiment [2], the IC50 is 7940 nM and the “Enzymatic Emax (%)” value is reported as 50%.

Take `Cc1cc(O[C@@H]2CCN(C(C)c3ccc4c(n3)OCCO4)C2)cc(C)n1` (single isomer, unassigned) [Product 75]: in experiment [1], the “Cellular hOGA; pEC50” value was under 6 and the “Cellular Emax (%)” value is 34%. Also, in experiment [2], the IC50 was 39.8 nM and the “Enzymatic Emax (%)” value stood at 99%.

For orientation: Emax means the maximal effect, on the per cent scale that the assay sets. As for `COc1cc(C[C@H]2CCN(C(C)c3nc4c(cc3F)CCO4)C2)cc(C)n1` (single isomer, unassigned) [Product 84], in experiment [1], the Emax amounted to 100% and the EC50 is 15.8 nM. Further, in experiment [2], the IC50 was 3.16 nM and the Emax turned out to be 102%.

As for `COc1cc(CC2(C)CCN(C(C)c3ccc4c(n3)OCCO4)C2)cc(C)n1` (single isomer, unassigned) [Product 95], in experiment [1], the Emax worked out at 39% and the EC50 was over 1000 nM. In experiment [2], the IC50 is 79.4 nM and the Emax amounted to 100%.

As to `Cc1cc(OC[C@]2(C)CCN([C@H](C)c3ccc4c(n3)OCCO4)C2)cc(C)n1` (single isomer, unassigned) [Product 100], in experiment [1], the EC50 was over 1000 nM and the “Cellular Emax (%)” value is on record as −5%. Moreover, in experiment [2], the IC50 is 2000 nM and the “Enzymatic Emax (%)” value was 87%.

For the molecule `Cc1cc(OC[C@]2(C)CCN([C@H](C)c3ccc4c(n3)OCCO4)C2)cc(C)n1` (single isomer, unassigned) [Product 101], in experiment [1], the “Cellular hOGA; pEC50” value is listed as under 6 and the “Cellular Emax (%)” value is −4%. Further, in experiment [2], the IC50 is over 10000 nM and the “Enzymatic Emax (%)” value worked out at 13%.

On to `Cc1cc(OC[C@]2(C)CCN([C@H](C)c3ccc4c(n3)OCCO4)C2)cc(C)n1` (single isomer, unassigned) [Product 102], for which, in experiment [1], the “Cellular hOGA; pEC50” value is on record as under 6 and the “Cellular Emax (%)” value was 7%. In addition, in experiment [2], the IC50 is 398 nM and the “Enzymatic Emax (%)” value was 93%.

For `Cc1cc(OC[C@]2(C)CCN([C@H](C)c3ccc4c(n3)OCCO4)C2)cc(C)n1` (single isomer, unassigned) [Product 103], in experiment [1], the “Cellular hOGA; pEC50” value is recorded as under 6 and the “Cellular Emax (%)” value was −5%. Moreover, in experiment [2], the IC50 is over 10000 nM and the “Enzymatic Emax (%)” value came to 29%.

For the molecule `Cc1cc(C[C@@H]2CCN([C@H](C)c3ccc4c(n3)OCCO4)C2)cc(C)n1` (single isomer, unassigned) [Product 104], in experiment [1], the EC50 is 631 nM and the “Cellular Emax (%)” value turned out to be 51%. Further, in experiment [2], the IC50 is 63.1 nM and the Emax turned out to be 100%.

As to `Cc1cc(C[C@@H]2CCN([C@H](C)c3ccc4c(n3)OCCO4)C2)cc(C)n1` (single isomer, unassigned) [Product 105], in experiment [1], the EC50 is over 1000 nM and the “Cellular Emax (%)” value came out at 6%. In addition, in experiment [2], the IC50 is 794 nM and the “Enzymatic Emax (%)” value was 91%.

As to `COc1cc(C[C@@H]2CCN([C@H](C)c3ccc4c(n3)OCCO4)C2)cc(C)n1` (single isomer, unassigned) [Product 106], the “Cellular Emax (%)” value in experiment [1] is recorded as 47%. Besides, in experiment [2], the IC50 was 79.4 nM and the Emax was determined as 100%.

For `COc1cc(C[C@@H]2CCN([C@H](C)c3ccc4c(n3)OCCO4)C2)cc(C)n1` (single isomer, unassigned) [Product 107], in experiment [1], the EC50 was over 1000 nM and the “Cellular Emax (%)” value is −6%. In experiment [2], the IC50 was 1260 nM and the “Enzymatic Emax (%)” value worked out at 90%.

As for `COc1cc(C[C@H]2CN([C@H](C)c3ccc4c(n3)OCCO4)C[C@@H]2C)cc(C)n1` (stereo in doubt) [Product 121], in experiment [1], the Emax amounted to 47% and the EC50 is over 1000 nM. Moreover, in experiment [2], the IC50 is 50.1 nM and the Emax came out at 99%.

For `COc1cc(C[C@@H]2CN([C@H](C)c3ccc4c(n3)OCCO4)C[C@H]2C)cc(C)n1` (stereo in doubt) [Product 122], in experiment [1], the Emax is -7% and the EC50 was over 1000 nM. Besides, the Emax in experiment [2] is 49%.

On to `COc1cc(C[C@H]2CN([C@@H](C)c3ccc4c(n3)OCCO4)C[C@@H]2C)cc(C)n1` (stereo in doubt) [Product 123], for which, in experiment [1], the Emax turned out to be 47% and the EC50 is about 1000 nM. For the same molecule, in experiment [2], the IC50 is 126 nM and the Emax is 100%.

For `COc1cc(C[C@@H]2CN([C@@H](C)c3ccc4c(n3)OCCO4)C[C@H]2C)cc(C)n1` (stereo in doubt) [Product 124], in experiment [1], the Emax was -3% and the EC50 was over 1000 nM. In experiment [2], the IC50 was over 10000 nM and the Emax was 40%.

As for `Cc1cc(C[C@H]2CCN(C(C)c3ccc4c(n3)OCCO4)C2)cc(C(F)(F)F)n1` (stereo partly drawn) [Product 5], the Emax in experiment [1] amounted to 45%. In experiment [2], the IC50 was 126 nM and the Emax was 100%.

For `Cc1cc(C[C@H]2CCN(C(C)c3ccc4c(c3)OCC4)C2)cc(C(F)(F)F)n1` (stereo partly drawn) [Product 6], in experiment [1], the Emax stood at 47% and the EC50 is over 1000 nM. In experiment [2], the IC50 is 79.4 nM and the Emax is 103%.

For the molecule `Cc1cc(C[C@H]2CCN(C(C)c3cc4c(cc3F)OCCO4)C2)cc(C(F)(F)F)n1` (stereo partly drawn) [Product 7], in experiment [1], the Emax was determined as 79% and the EC50 was 398 nM. Besides, in experiment [2], the IC50 was 20 nM and the Emax was 102%.
